ChEMBL document CHEMBL4130462, “Natural isoflavone biochanin A as a template for the design of new and potent 3-phenylquinolone efflux inhibitors against Mycobacterium avium” (Eur J Med Chem, 2017)
In brackets after ≈: the same amount, converted by molar mass.

Columns and labels:
Mycobacterium avium [1] = experiment: Antimycobacterial activity against Mycobacterium avium isolate MAV3 assessed as reduction in bacterial viability incubated for 3 days by MTT assay; format: organism-based; conditions: 72 h
Mycobacterium avium [2] = experiment: Antimycobacterial activity against Mycobacterium avium isolate MAV4 assessed as reduction in bacterial viability incubated for 3 days by MTT assay; format: organism-based; conditions: 72 h
[3] = Cytotoxicity in human monocyte-derived macrophages assessed as reduction in cell viability incubated for 3 days by alamar blue dye based assay; set-up: species or system Macrophage cell line; conditions: for CC50 at 72 h: human monocyte-derived macrophages; for MTC: macrophage cell line, 72 h
Mycobacterium avium [4] = conditions: 72 h
Description: Antimycobacterial activity against Mycobacterium avium 104 assessed as reduction in bacterial viability incubated for 3 days by MTT assay

Mycobacterium avium [5] = conditions: 104 mc'2 3
Mycobacterium avium [6] = conditions: 104 mc'2 3; remark: listed apart in the source
Mycobacterium avium [7] = conditions: isolate MAV1
Mycobacterium avium [8] = conditions: isolate MAV1; remark: listed apart in the source
Mycobacterium avium [9] = conditions: isolate MAV2
Description: Inhibition of multidrug resistance efflux pump in Mycobacterium avium isolate MAV2 assessed as potentiation of clarithromycin -induced antibacterial activity by measuring clarithromycin MIC at 1/2 MIC incubated for 3 days by MTT assay (Rvb = >1024 ug/ml)

Mycobacterium avium [10] = conditions: isolate MAV3
Mycobacterium avium [11] = conditions: isolate MAV4
Description: Inhibition of multidrug resistance efflux pump in Mycobacterium avium isolate MAV4 assessed as potentiation of clarithromycin -induced antibacterial activity by measuring clarithromycin MIC at 1/4 MIC incubated for 3 days by MTT assay

Mycobacterium avium [12] = conditions: 104 mc'2 3; remark: listed apart in the source
Mycobacterium avium [13] = conditions: 104 mc'2 4
Mycobacterium avium [14] = conditions: isolate MAV3; remark: listed apart in the source
Mycobacterium avium [15] = conditions: isolate MAV4; remark: listed apart in the source
[16] = tested on: Mycobacterium avium subsp. avium ATCC 25291
Mycobacterium avium [17] = conditions: 104 mc'2 3; remark: listed apart in the source
Mycobacterium avium [18] = conditions: 104 mc'2 3; remark: listed apart in the source
Mycobacterium avium [19] = conditions: 104 mc'2 4; remark: listed apart in the source
Mycobacterium avium [20] = conditions: 104 mc'2 4; remark: listed apart in the source
Mycobacterium avium [21] = conditions: isolate MAV2; remark: listed apart in the source
Mycobacterium avium [22] = conditions: isolate MAV2; remark: listed apart in the source
Mycobacterium avium [23] = conditions: isolate MAV3; remark: listed apart in the source
[24] = tested on: Mycobacterium avium subsp. avium ATCC 25291; remark: listed apart in the source
Mycobacterium avium [25] = conditions: 104
Mycobacterium avium [26] = conditions: isolate MAV1; remark: listed apart in the source
Description: Inhibition of multidrug resistance efflux pump in Mycobacterium avium isolate MAV1 assessed as potentiation of ciprofloxacin-induced antibacterial activity by measuring ciprofloxacin MIC at 1/2 MIC incubated for 3 days by MTT assay (Rvb = 2 ug/ml)

Mycobacterium avium [27] = conditions: isolate MAV1; remark: listed apart in the source
Description: Inhibition of multidrug resistance efflux pump in Mycobacterium avium isolate MAV1 assessed as potentiation of ciprofloxacin-induced antibacterial activity by measuring ciprofloxacin MIC at 1/4 MIC incubated for 3 days by MTT assay

Mycobacterium avium [28] = conditions: isolate MAV3; remark: listed apart in the source
Mycobacterium avium [29] = conditions: isolate MAV3; remark: listed apart in the source
Mycobacterium avium [30] = conditions: isolate MAV4; remark: listed apart in the source
[31] = tested on: Mycobacterium avium subsp. avium ATCC 25291; remark: listed apart in the source
Mycobacterium avium [32] = conditions: 104; remark: listed apart in the source
Mycobacterium avium [33] = conditions: 104 mc'2 3; remark: listed apart in the source
Mycobacterium avium [34] = conditions: isolate MAV2; remark: listed apart in the source
Description: Inhibition of multidrug resistance efflux pump in Mycobacterium avium isolate MAV2 assessed as potentiation of ofloxacin-induced antibacterial activity by measuring ofloxacin MIC at 1/2 MIC incubated for 3 days by MTT assay

Mycobacterium avium [35] = conditions: isolate MAV3; remark: listed apart in the source
Mycobacterium avium [36] = conditions: isolate MAV4; remark: listed apart in the source
Mycobacterium avium [37] = conditions: isolate MAV4; remark: listed apart in the source
Mycobacterium avium [38] = conditions: 104 mc'2 4; remark: listed apart in the source
Mycobacterium avium [39] = conditions: isolate MAV2; remark: listed apart in the source
Mycobacterium avium [40] = conditions: isolate MAV2; remark: listed apart in the source
Mycobacterium avium [41] = conditions: isolate MAV4; remark: listed apart in the source
[42] = tested on: Mycobacterium avium subsp. avium ATCC 25291; remark: listed apart in the source
Description: Inhibition of multidrug resistance efflux pump in Mycobacterium avium ATCC 25291 assessed as potentiation of ethidium bromide-induced antibacterial activity by measuring ethidium bromide MIC at 1/2 MIC incubated for 3 days by MTT assay (Rvb = 50 ug/ml)

SMILES: CN(C)CCCN1c2ccccc2Sc2ccc(Cl)cc21 [CHLORPROMAZINE]
- MIC (Mycobacterium avium [1]): 30 µg/mL (≈ 94.1 µM)
- MIC (Mycobacterium avium [2]): 30 µg/mL (≈ 94.1 µM)
- CC50 at 72 h [3]: 22.2 µM
- MTC [3]: 1.25 µM
- MIC (Mycobacterium avium [4]): 30 µg/mL (≈ 94.1 µM)
- MIC (Mycobacterium avium [5]): < 4 µg/mL
- MIC (Mycobacterium avium [6]): > 512 µg/mL
- MIC (Mycobacterium avium [7]): < 0.031 µg/mL
- MIC (Mycobacterium avium [8]): 0.0625 µg/mL (≈ 0.196 µM)
- MIC (Mycobacterium avium [9]): > 512 µg/mL
- MIC (Mycobacterium avium [10]): 4 µg/mL (≈ 12.5 µM)
- MIC (Mycobacterium avium [11]): 2 µg/mL (≈ 6.27 µM)
- MIC (Mycobacterium avium [12]): > 512 µg/mL
- MIC (Mycobacterium avium [13]): > 512 µg/mL
- MIC (Mycobacterium avium [14]): 8 µg/mL (≈ 25.1 µM)
- MIC (Mycobacterium avium [15]): 32 µg/mL (≈ 100 µM)
- MIC [16]: 16 µg/mL (≈ 50.2 µM)
- MIC (Mycobacterium avium [17]): < 4 µg/mL
- MIC (Mycobacterium avium [18]): > 512 µg/mL
- MIC (Mycobacterium avium [19]): 64 µg/mL (≈ 201 µM)
- MIC (Mycobacterium avium [20]): > 512 µg/mL
- MIC (Mycobacterium avium [21]): > 512 µg/mL
- MIC (Mycobacterium avium [22]): > 512 µg/mL
- MIC (Mycobacterium avium [23]): 64 µg/mL (≈ 201 µM)
- MIC [24]: 16 µg/mL (≈ 50.2 µM)
- MIC (Mycobacterium avium [25]): 2 µg/mL (≈ 6.27 µM)
- MIC (Mycobacterium avium [26]): < 0.031 µg/mL
- MIC (Mycobacterium avium [27]): 1 µg/mL (≈ 3.14 µM)
- MIC (Mycobacterium avium [28]): 1 µg/mL (≈ 3.14 µM)
- MIC (Mycobacterium avium [29]): 4 µg/mL (≈ 12.5 µM)
- MIC (Mycobacterium avium [30]): 4 µg/mL (≈ 12.5 µM)
- MIC [31]: 16 µg/mL (≈ 50.2 µM)
- MIC (Mycobacterium avium [32]): 2 µg/mL (≈ 6.27 µM)
- MIC (Mycobacterium avium [33]): 8 µg/mL (≈ 25.1 µM)
- MIC (Mycobacterium avium [34]): 1 µg/mL (≈ 3.14 µM)
- MIC (Mycobacterium avium [35]): 8 µg/mL (≈ 25.1 µM)
- MIC (Mycobacterium avium [36]): 2 µg/mL (≈ 6.27 µM)
- MIC (Mycobacterium avium [37]): 44 µg/mL (≈ 138 µM)
- MIC (Mycobacterium avium [38]): 0.39 µg/mL (≈ 1.22 µM)
- MIC (Mycobacterium avium [39]): 6.25 µg/mL (≈ 19.6 µM)
- MIC (Mycobacterium avium [40]): 12.5 µg/mL (≈ 39.2 µM)
- MIC (Mycobacterium avium [41]): 3.12 µg/mL (≈ 9.8 µM)
- MIC [42]: < 0.39 µg/mL

SMILES: CSc1ccc2c(c1)N(CCC1CCCCN1C)c1ccccc1S2 (stereo unspecified) [THIORIDAZINE]
- MIC (Mycobacterium avium [1]): 30 µg/mL (≈ 81 µM)
- MIC (Mycobacterium avium [2]): 30 µg/mL (≈ 81 µM)
- CC50 at 72 h [3]: 13.8 µM
- MTC [3]: 2.5 µM
- MIC (Mycobacterium avium [4]): 30 µg/mL (≈ 81 µM)
- MIC (Mycobacterium avium [5]): < 4 µg/mL
- MIC (Mycobacterium avium [6]): > 512 µg/mL
- MIC (Mycobacterium avium [7]): < 0.031 µg/mL
- MIC (Mycobacterium avium [8]): 0.0625 µg/mL (≈ 0.169 µM)
- MIC (Mycobacterium avium [9]): 256 µg/mL (≈ 691 µM)
- MIC (Mycobacterium avium [10]): 4 µg/mL (≈ 10.8 µM)
- MIC (Mycobacterium avium [11]): 4 µg/mL (≈ 10.8 µM)
- MIC (Mycobacterium avium [12]): > 512 µg/mL
- MIC (Mycobacterium avium [13]): > 512 µg/mL
- MIC (Mycobacterium avium [14]): 64 µg/mL (≈ 173 µM)
- MIC (Mycobacterium avium [15]): 64 µg/mL (≈ 173 µM)
- MIC [16]: 32 µg/mL (≈ 86.3 µM)
- MIC (Mycobacterium avium [17]): < 4 µg/mL
- MIC (Mycobacterium avium [18]): > 512 µg/mL
- MIC (Mycobacterium avium [19]): 32 µg/mL (≈ 86.3 µM)
- MIC (Mycobacterium avium [20]): > 512 µg/mL
- MIC (Mycobacterium avium [21]): 128 µg/mL (≈ 345 µM)
- MIC (Mycobacterium avium [22]): > 512 µg/mL
- MIC (Mycobacterium avium [23]): 128 µg/mL (≈ 345 µM)
- MIC [24]: 32 µg/mL (≈ 86.3 µM)
- MIC (Mycobacterium avium [25]): 4 µg/mL (≈ 10.8 µM)
- MIC (Mycobacterium avium [26]): < 0.031 µg/mL
- MIC (Mycobacterium avium [27]): 0.5 µg/mL (≈ 1.35 µM)
- MIC (Mycobacterium avium [28]): 2 µg/mL (≈ 5.4 µM)
- MIC (Mycobacterium avium [29]): 4 µg/mL (≈ 10.8 µM)
- MIC (Mycobacterium avium [30]): 8 µg/mL (≈ 21.6 µM)
- MIC [31]: 32 µg/mL (≈ 86.3 µM)
- MIC (Mycobacterium avium [32]): 4 µg/mL (≈ 10.8 µM)
- MIC (Mycobacterium avium [33]): 8 µg/mL (≈ 21.6 µM)
- MIC (Mycobacterium avium [34]): 0.5 µg/mL (≈ 1.35 µM)
- MIC (Mycobacterium avium [35]): 8 µg/mL (≈ 21.6 µM)
- MIC (Mycobacterium avium [36]): 4 µg/mL (≈ 10.8 µM)
- MIC (Mycobacterium avium [37]): 16 µg/mL (≈ 43.2 µM)
- MIC (Mycobacterium avium [38]): 0.78 µg/mL (≈ 2.1 µM)
- MIC (Mycobacterium avium [39]): 6.25 µg/mL (≈ 16.9 µM)
- MIC (Mycobacterium avium [40]): 12.5 µg/mL (≈ 33.7 µM)
- MIC (Mycobacterium avium [41]): 12.5 µg/mL (≈ 33.7 µM)
- MIC [42]: 6.25 µg/mL (≈ 16.9 µM)
